Data from ChEMBL document CHEMBL5338717, “Discovery of novel PDE4 inhibitors targeting the M-pocket from natural mangostanin with improved safety for the treatment of Inflammatory Bowel Diseases” (Eur J Med Chem, 2022).
Active and inactive are the calls of the source. The rule behind the calls is not given here.

Experiments:
[1] = Metabolic stability in rat liver microsomes assessed as half life; format: ADME, Microsome
[2] = target: T1, 3',5'-cyclic-AMP phosphodiesterase 4D (Homo sapiens, UniProt Q08499); assay: Inhibition of recombinant PDE4D2 (86 to 413 residues) (unknown origin) expressed in Escherichia coli BL21 using [3H]cAMP as substrate incubated for 15 mins by liquid scintillation method
[3] = target: T1, 3',5'-cyclic-AMP phosphodiesterase 4D; assay: Inhibition of PDE4D2 (unknown origin)
[4] = tested on: Mus musculus; assay: Anti-inflammatory bowel disease activity in DSS-induced inflammatory bowel disease C57BL/6 mouse model assessed as decrease in IL-6 mRNA expression level in colon at 25 mg/kg, iv BID and measured after 8 days by real-time PCR analysis; format: functional, organism-based; conditions: time 8.0 day
[5] = tested on: Mus musculus; assay: Anti-inflammatory bowel disease activity in DSS-induced inflammatory bowel disease C57BL/6 mouse model assessed as decrease in goblet cells in colon at 25 mg/kg, iv BID and measured after 8 days by Haematoxylin and eosin staining based microscopy; format: functional, organism-based; conditions: time 8.0 day
[6] = tested on: Mus musculus; assay: Anti-inflammatory bowel disease activity in DSS-induced inflammatory bowel disease C57BL/6 mouse model assessed as decrease in epithelial damage in colon at 25 mg/kg, iv BID and measured after 8 days by Haematoxylin and eosin staining based microscopy; format: functional, organism-based; conditions: time 8.0 day
[7] = tested on: Mus musculus; assay: Anti-inflammatory bowel disease activity in DSS-induced inflammatory bowel disease C57BL/6 mouse model assessed as increase in colon length at 25 mg/kg, iv BID and measured upto 8 days; format: functional, organism-based; conditions: time <= 8.0 day
[8] = tested on: Mus musculus; assay: Anti-inflammatory bowel disease activity in DSS-induced inflammatory bowel disease C57BL/6 mouse model assessed as decrease in IFN-gamma mRNA expression level in colon at 25 mg/kg, iv BID and measured after 8 days by real-time PCR analysis; format: functional, organism-based; conditions: time 8.0 day
[9] = tested on: Mus musculus; assay: Anti-inflammatory bowel disease activity in DSS-induced inflammatory bowel disease C57BL/6 mouse assessed as decrease in neutrophil infiltration in colon at 25 mg/kg, iv BID and measured after 8 days by Haematoxylin and eosin staining based microscopy; format: functional, organism-based; conditions: time 8.0 day
[10] = tested on: Mus musculus; assay: Anti-inflammatory bowel disease activity in DSS-induced inflammatory bowel disease C57BL/6 mouse model assessed as decrease in loss of crypt architecture in colon at 25 mg/kg, iv BID and measured after 8 days by Haematoxylin and eosin staining based microscopy; format: functional, organism-based; conditions: time 8.0 day
[11] = tested on: Mus musculus; assay: Anti-inflammatory bowel disease activity in DSS-induced inflammatory bowel disease C57BL/6 mouse model assessed as decrease in TNF-alpha mRNA expression level in colon at 25 mg/kg, iv BID and measured after 8 days by real-time PCR analysis; format: functional, organism-based; conditions: time 8.0 day
[12] = tested on: Mus musculus; assay: Anti-inflammatory bowel disease activity in DSS-induced inflammatory bowel disease C57BL/6 mouse model assessed as decrease in body weight loss by measuring disease activity index score at 25 mg/kg, iv BID and measured upto 8 days; format: functional, organism-based; conditions: time <= 8.0 day
[13] = tested on: Mus musculus; assay: Anti-inflammatory bowel disease activity in DSS-induced inflammatory bowel disease C57BL/6 mouse model assessed as decrease in IL-10 mRNA expression level in colon at 25 mg/kg, iv BID and measured after 8 days by real-time PCR analysis; format: functional, organism-based; conditions: time 8.0 day
[14] = tested on: Mus musculus; assay: Anti-inflammatory bowel disease activity in DSS-induced inflammatory bowel disease C57BL/6 mouse model assessed as decrease in rectal bleeding by measuring disease activity index score at 25 mg/kg, iv BID and measured upto 8 days by Haem-occult test; format: functional, organism-based; conditions: time <= 8.0 day
[15] = tested on: Mus musculus; assay: Anti-inflammatory bowel disease activity in DSS-induced inflammatory bowel disease C57BL/6 mouse model assessed as increase in body weight at 25 mg/kg, iv BID and measured after 8 days […]; format: functional, organism-based; conditions: time 8.0 day
[16] = tested on: Mus musculus; assay: Anti-inflammatory bowel disease activity in DSS-induced inflammatory bowel disease C57BL/6 mouse model assessed as decrease in diarrhoea by measuring disease activity index score at 25 mg/kg, iv BID and measured upto 8 days; format: functional, organism-based; conditions: time <= 8.0 day
[17] = Inhibition of PDE7 (unknown origin); set-up: species or system Homo sapiens
[18] = tested on: Mus musculus; assay: Anti-inflammatory bowel disease activity in DSS-induced inflammatory bowel disease C57BL/6 mouse model assessed as decrease in mucosal ulceration in colon at 25 mg/kg, iv BID and measured after 8 days by Haematoxylin and eosin staining based microscopy; format: functional, organism-based; conditions: time 8.0 day
[19] = Toxicity in twelve hrs fasted Beagle dog assessed as emesis at 1 mg/kg,po and measured upto 180 mins; format: organism-based, Canis lupus familiaris; conditions: in vivo, 3 h

T1 sequence (Q08499 whole entry, the tested form may be a part): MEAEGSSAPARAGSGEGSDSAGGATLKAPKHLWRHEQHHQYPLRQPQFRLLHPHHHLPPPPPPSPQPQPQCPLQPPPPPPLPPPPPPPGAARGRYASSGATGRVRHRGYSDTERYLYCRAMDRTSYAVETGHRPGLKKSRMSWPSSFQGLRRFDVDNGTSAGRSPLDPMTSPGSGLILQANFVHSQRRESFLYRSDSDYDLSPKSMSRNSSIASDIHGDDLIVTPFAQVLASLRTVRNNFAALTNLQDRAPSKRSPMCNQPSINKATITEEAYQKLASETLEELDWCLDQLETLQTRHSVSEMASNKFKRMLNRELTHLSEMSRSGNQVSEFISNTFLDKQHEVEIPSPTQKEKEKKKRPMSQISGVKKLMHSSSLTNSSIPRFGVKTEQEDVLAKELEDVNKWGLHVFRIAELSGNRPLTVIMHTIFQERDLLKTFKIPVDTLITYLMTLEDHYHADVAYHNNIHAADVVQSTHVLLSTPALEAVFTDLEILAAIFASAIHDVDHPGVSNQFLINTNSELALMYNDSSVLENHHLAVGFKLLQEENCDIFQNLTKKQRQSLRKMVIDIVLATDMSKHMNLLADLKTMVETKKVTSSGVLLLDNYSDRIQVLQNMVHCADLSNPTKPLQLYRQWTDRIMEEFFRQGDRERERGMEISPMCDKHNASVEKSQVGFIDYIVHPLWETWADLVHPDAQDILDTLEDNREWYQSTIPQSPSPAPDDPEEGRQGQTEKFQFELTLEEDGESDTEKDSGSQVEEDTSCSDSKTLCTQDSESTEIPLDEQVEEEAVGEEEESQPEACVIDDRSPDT

Compound | half-life [1] [min] | IC50 [2] [nM] | other results
CCOc1cc2oc3cc4c(c(OCc5ccncc5)c3c(=O)c2c(CC=C(C)C)c1OC)C=CC(C)(C)O4 | 2.98 | 10.2 | 
COc1c(O)cc2oc3cc4c(c(O)c3c(=O)c2c1CC=C(C)C)C=CC(C)(C)O4 [MANGOSTANIN] | 8.1 |  | 
OCCN(CCO)c1nc(N2CCCCC2)c2nc(N(CCO)CCO)nc(N3CCCCC3)c2n1 [DIPYRIDAMOLE] |  |  | IC50 [3]: 2800 nM; Activity [4]: Active; Activity [5]: Active; Activity [6]: Active; Activity [7]: Active; Activity [8]: Active; Activity [9]: Active; Activity [10]: Active; Activity [11]: Active; Activity [12]: Active; Activity [13]: Active; Activity [14]: Active; Activity [15]: inactive; Activity [16]: Active; IC50 [17]: 600 nM; Activity [18]: Active
COc1c(OCc2ccc(F)cc2)cc2oc3cc4c(c(OCc5ccccn5)c3c(=O)c2c1CC=C(C)C)C=CC(C)(C)O4 |  | 20.2 | 
COc1c(OCc2cccc(F)c2)cc2oc3cc4c(c(OCc5ccccn5)c3c(=O)c2c1CC=C(C)C)C=CC(C)(C)O4 |  | 9.3 | 
COc1c(OCc2ccncc2)cc2oc3cc4c(c(OCc5ccncc5)c3c(=O)c2c1CC=C(C)C)C=CC(C)(C)O4 | 16 | 10.6 | 
COc1ccc(C2CNC(=O)C2)cc1OC1CCCC1 (stereo not drawn) [ROLIPRAM] |  |  | Activity [19]: Toxic
COc1c(O)cc2oc3cc4c(c(OCc5ccncc5)c3c(=O)c2c1CC=C(C)C)C=CC(C)(C)O4 | 6.7 | 25 | 
COc1c(O)cc2oc3cc4c(c(OCc5cccnc5)c3c(=O)c2c1CC=C(C)C)C=CC(C)(C)O4 |  | > 1000 | 
COc1c(OCc2ccc(F)cc2)cc2oc3cc4c(c(OCC5CCNCC5)c3c(=O)c2c1CC=C(C)C)C=CC(C)(C)O4 |  | 12.4 | 
COc1c(O)cc2oc3cc4c(c(OCc5ccccn5)c3c(=O)c2c1CC=C(C)C)C=CC(C)(C)O4 | 0.9 | 203 | 
COc1c(O)cc2oc3cc4c(c(OCc5ccccc5)c3c(=O)c2c1CC=C(C)C)C=CC(C)(C)O4 |  | > 1000 | 
COc1cc2oc3cc4c(c(OCc5ccncc5)c3c(=O)c2c(CC=C(C)C)c1OC)C=CC(C)(C)O4 | 2.08 | 11.7 | 

Continued, in another order:

half-life [1] [min] | IC50 [2] [nM] | Compound | other results
3 | 6.5 | COc1c(OCc2ccccn2)cc2oc3cc4c(c(OCc5ccccn5)c3c(=O)c2c1CC=C(C)C)C=CC(C)(C)O4 | 
 | 7.8 | COc1c(OCc2cccc(F)c2)cc2oc3cc4c(c(OCc5ccncc5)c3c(=O)c2c1CC=C(C)C)C=CC(C)(C)O4 | 
315 | 1.4 | COc1c(OCc2ccccc2)cc2oc3cc4c(c(OCc5ccncc5)c3c(=O)c2c1CC=C(C)C)C=CC(C)(C)O4 | 
 | 8.2 | COc1c(OCc2ccc(F)cc2)cc2oc3cc4c(c(OCc5cccnc5)c3c(=O)c2c1CC=C(C)C)C=CC(C)(C)O4 | 
78 | 5.2 | COc1c(OC(C)C)cc2oc3cc4c(c(OCc5ccncc5)c3c(=O)c2c1CC=C(C)C)C=CC(C)(C)O4 | 
33 | 1.4 | COc1c(OCc2ccc(F)cc2)cc2oc3cc4c(c(OCc5ccncc5)c3c(=O)c2c1CC=C(C)C)C=CC(C)(C)O4 | 
